Test results taken from publication PMC9257752, “Intestinal Absorption of FITC-Dextrans and Macromolecular Model Drugs in the Rat Intestinal Instillation Model” (Molecular Pharmaceutics, 2022).
Numbered stars: 1 amine (or outer) side, 2 acyl side, 3 side chain; on linkers, the order of the positions; unused ones are H or OH. Square brackets hold non-standard residues; d marks the D form. Side chains are listed from the residue outwards. Peptide text beside a SMILES is read from it. * marks the point of attachment. γGlu = O=C(O)[C@H](CCC(=O)[*:2])N[*:1]; αMeF = C[C@](N)(Cc1ccccc1)C(=O)O; αMeK = C[C@](N)(CCCCN)C(=O)O; Lauroyl = CCCCCCCCCCCC(=O)*; αMeS = C[C@](N)(CO)C(=O)O; AEEA = NCCOCCOCC(=O)O; Aib = CC(C)(N)C(=O)O

Legend:
[1] = test system: pancreatin; parameters: method as in PMID 34795324; conditions: simulated intestinal fluid containing pancreatin, over a 60 min period; cited from earlier work
[2] = dogs; cited from earlier work
Excerpt: MEDI7219 is a glucagon-like peptide 1 (GLP-1) receptor agonist drug candidate developed by AstraZeneca.[10] The peptide was designed for oral delivery and has natural amino acid and α-methyl amino acid substitutions to protect against peptidasesin the gastrointestinal tract. The peptide backbone has two lipid side chains that can bind to plasma proteins, thereby prolonging the circulation half-life of the peptide. […] The calculated pI is 3.8, giving the peptide a charge of −6.2 at pH 7.4. The molecular weight of MEDI7219 is 4353, ...

[3] = Rat intestinal instillation model (intraduodenal administration, plasma pharmacokinetics, deconvolution); conditions: for Proportion of total absorption (120 min) occurring in interval 0–20 min / Proportion of total absorption (120 min) occurring in interval 20–40 min / Proportion of total absorption (120 min) occurring in interval 40–60 min / Proportion of total absorption (120 min) occurring in interval 60–80 min / Proportion of total absorption (120 min) occurring in interval 80–100 min / Proportion of total absorption (120 min) occurring in interval 100–120 min: average ± SD; for Cmax / Tmax: male, Wistar Han, rat, plasma; for Cmax: pH 6.5, Cmax, MEDI7219 1.0 mg, PEP12210 5.0 mg, mean ± SD (CV%); for Tmax: pH 6.5, Tmax
Procedure: Blank FaSSIF was prepared by dissolving 2.22 g of maleic acid, 1.39 g of sodium hydroxide, and 4.01 g of sodium chloride in Milli-Q water and adjusting the pH to 6.5 and volume to 1000 mL. C10 solutions were prepared at 50 or 300 mM C10 in blank FaSSIF and pH-adjusted to 6.5 by the addition of 2 M HCl. Blank FaSSIF solutions containing 0–300 mM C10 were stored at room temperature (RT) and used within 30 days. The model compounds were dissolved in blank FaSSIF with or without C10 the day before the absorption study and stored at +4 °C overnight. […] All IV formulations were sterile filtered into autoclaved injection vials and stored at +4 °C.
Upon arrival at the animal facility, the rats underwent an acclimatization period of 5 days with food and water ad libitum.
Briefly, anesthesia was induced with isoflurane after which the animal was moved to a preheated preparatory table. Fur was shaved from the throat to the lower abdomen and the shaved area was disinfected with a medicinal sponge containing chlorhexidine. The rat was draped in plastic foil and transferred to a preheated operating table where anesthesia was continued throughout the entire study using 3% isoflurane carried in an air/oxygen mixture. A polyurethane catheter was placed in the left carotid artery to allow for blood sampling, as well as blood pressure and heart rate monitoring. A midline incision was made in the abdomen, the duodenum was located and a catheter was placed in the common bile duct to avoid bile secretion into the duodenum. […] The stomach was punctured approximately 1 cm proximal to the pyloric sphincter with a 20G needle. A soft polyurethane catheter with a rounded tip was inserted into the small intestine via the gastric incision so that the tip of the catheter was positioned approximately 4 cm distal to the pylorus. The intestinal catheter was secured to the stomach with a suture and a ligature was placed at the pylorus to prevent backflow of formulation into the stomach and transit of gastric content into the duodenum. A thermometer was placed in the abdominal cavity and the abdomen was closed with stitches. A heating lamp coupled to the thermometer via a thermostat maintained the animal at 37 °C. The surgery was followed by a 30 min recovery period to allow the animal to regain normal temperature and blood pressure.
The liquid formulations were equilibrated to room temperature under magnetic stirring for 2 h prior to administration. Intestinal bolus administrations were performed over approximately 5 s via the intestinal catheter. […] The C10 doses were 7.8 mg for administrations with 50 mM C10 and 47 mg for 300 mM C10. Five to six replicates were performed for each administration group. […] Blood plasma was separated by immediately centrifuging the blood samples at +4 °C and 10 000g for 4 min. Plasma samples were transferred to new tubes and stored at −80 °C until analysis.
The animals receiving IV administration were handled and prepared in the same way as the animals receiving intestinal administration up until the placement of the carotid catheter. As no abdominal surgery was performed, a thermometer was introduced rectally.

[4] = 0 mM C10, numerical deconvolution, n = 5–6 (PEP12210 n = 2)
[5] = 50 mM C10, numerical deconvolution, n = 5–6
[6] = 300 mM C10, numerical deconvolution, n = 5–6

Proportion of total absorption (120 min) occurring in interval 0–20 min [3, 4]: 11% ± 2.8% | Proportion of total absorption (120 min) occurring in interval 20–40 min [3, 4]: 12% ± 2.9% | Proportion of total absorption (120 min) occurring in interval 40–60 min [3, 4]: 22% ± 2.5% | Proportion of total absorption (120 min) occurring in interval 60–80 min [3, 4]: 15% ± 1.2% | Proportion of total absorption (120 min) occurring in interval 80–100 min [3, 4]: 18% ± 2.5% | Proportion of total absorption (120 min) occurring in interval 100–120 min [3, 4]: 22% ± 4.9% | Proportion of total absorption (120 min) occurring in interval 0–20 min [3, 5]: 72% ± 3.6% | Proportion of total absorption (120 min) occurring in interval 20–40 min [3, 5]: 16% ± 2.6% | Proportion of total absorption (120 min) occurring in interval 40–60 min [3, 5]: 4.5% ± 1.7% | Proportion of total absorption (120 min) occurring in interval 60–80 min [3, 5]: 1.8% ± 5.5% | Proportion of total absorption (120 min) occurring in interval 80–100 min [3, 5]: 2.1% ± 2.6% | Proportion of total absorption (120 min) occurring in interval 100–120 min [3, 5]: 3.6% ± 4.2% | Proportion of total absorption (120 min) occurring in interval 0–20 min [3, 6]: 25% ± 5.1% | Proportion of total absorption (120 min) occurring in interval 20–40 min [3, 6]: 20% ± 2.6% | Proportion of total absorption (120 min) occurring in interval 40–60 min [3, 6]: 24% ± 2.3% | Proportion of total absorption (120 min) occurring in interval 60–80 min [3, 6]: 13% ± 3.5% | Proportion of total absorption (120 min) occurring in interval 80–100 min [3, 6]: 10% ± 3.1% | Proportion of total absorption (120 min) occurring in interval 100–120 min [3, 6]: 7.8% ± 4.0% | Cmax ([3]; 50 mM C10, blank FaSSIF pH 6.5, dose FD10 10 mg, n = 5–6): 440 nM | Cmax ([3]; 300 mM C10, blank FaSSIF pH 6.5, dose FD10 10 mg, n = 5–6): 1400 nM | Tmax ([3]; 0 mM C10, blank FaSSIF pH 6.5, median (min–max), n = 5–6 (PEP12210 n = 2)): 2 h | Tmax ([3]; 50 mM C10, blank FaSSIF pH 6.5, median (min–max), n = 5–6): 0.333 h | Tmax ([3]; 300 mM C10, blank FaSSIF pH 6.5, median (min–max), n = 5–6): 1.5 h
Compound: CCCCCCCCCCCC(=O)N[C@@H](CCC(=O)NCCOCCOCC(=O)NCCOCCOCC(=O)NCCCC[C@H](NC(=O)[C@H](C)NC(=O)[C@@H](NC(=O)[C@](C)(Cc1ccccc1)NC(=O)[C@H](CCC(=O)O)NC(=O)[C@](C)(CCCCN)NC(=O)[C@H](C)NC(=O)[C@H](C)NC(=O)[C@H](CCC(=O)O)NC(=O)CNC(=O)[C@H](CCC(=O)O)NC(=O)[C@H](CC(C)C)NC(=O)[C@H](CCCCNC(=O)COCCOCCNC(=O)COCCOCCNC(=O)CC[C@H](NC(=O)CCCCCCCCCCC)C(=O)O)NC(=O)[C@H](CO)NC(=O)[C@](C)(CO)NC(=O)[C@@H](NC(=O)[C@H](CC(=O)O)NC(=O)[C@H](CO)NC(=O)[C@@H](NC(=O)[C@](C)(Cc1ccccc1)NC(=O)[C@H](CO)NC(=O)CNC(=O)[C@H](CCC(=O)O)NC(=O)C(C)(C)NC(=O)[C@@H](N)Cc1c[nH]cn1)[C@@H](C)O)C(C)C)[C@@H](C)CC)C(=O)N[C@H](C(=O)N[C@H](C(=O)N[C@@H](CCC(=O)O)C(=O)NCC(=O)NCC(N)=O)C(C)C)C(C)C)C(=O)O [MEDI7219] (H-H[Aib]EGS[αMeF]TSDV[αMeS]SK([AEEA-AEEA-γGlu-Lauroyl])LEGEAA[αMeK]E[αMeF]IAK([AEEA-AEEA-γGlu-Lauroyl])VVEGG-NH2)
Proportion of peptide remaining intact [1]: 90% | Half-life following oral administration [2]: 9.8 h
